“And” between values parts separate entries of the source, which are not always exact repeats. Identical values can stand only once.
Experiments:
Assay type in all cases: cell-based
[1] = system: SARS-CoV-2 variant Omicron (BA.5); assay: microbe, parasite or virus in culture; settings: for EC50: Severe acute respiratory syndrome coronavirus 2, 24 h, read-out: EC50 BA.5 (293T-AT)
[2] = system: SARS-CoV-2 variant Delta (B.1.617.2); assay: microbe, parasite or virus in culture; settings: for EC50: Severe acute respiratory syndrome coronavirus 2, 24 h, read-out: EC50 B.1.617.2 (293T-AT)
[3] = system: SARS-CoV-2 variant Omicron (BA.5)

Structure (SMILES): Cc1c([C@H](C)[C@@H]2NC[C@@H](C)C[C@H]2O)ccc2c1C[C@H]1[C@H]2CC=C2C[C@@H](O)CC[C@@]21C [Veratramine, veratramine]
- BA.5, HEK293T-AT: inhibition at the concentration (Fig2B) [1]: 81.3
- EC50 [1]: < 80 nM
- B.1.617.2, HEK293T-AT: inhibition at the concentration (Fig2B) [2]: 99.1 and 99.7 and 99.9
- EC50 [2]: < 80 nM

Structure (SMILES): O=C(CC(=O)c1ccccc1)c1ccccc1 [DBM, dibenzoylmethane]
- inhibitory effect against SARS-CoV-2 BA.5 in Vero E6 cells [3]: but not in Vero E6 cells
- BA.5, HEK293T-AT: inhibition at the concentration (Fig2B) [1]: 97.4
- inhibitory effect against SARS-CoV-2 BA.5 in HEK293T-AT cells [1]: demonstrated efficacy
- EC50 [1]: 6630 nM
- EC50 [2]: 20800 nM

Structure (SMILES): CC1=C[C@]23C(=O)[C@@H](C=C(COC(=O)c4ccccc4)[C@@H](O)[C@]2(O)[C@H]1OC(=O)c1ccccc1)[C@H]1[C@@H](C[C@H]3C)C1(C)C [Ingenol 3,20-dibenzoate, ingenol 3,20-dibenzoate]
- EC50 [1]: < 80 nM
- B.1.617.2, HEK293T-AT: inhibition at the concentration (Fig2B) [2]: 81.2
- EC50 [2]: < 80 nM

Structure (SMILES): C/C=C(/C)C(=O)OC(C)(C)[C@@H]1Cc2c(ccc3ccc(=O)oc23)O1 [Columbianadin, columbianadin]
- EC50 [1]: < 80 nM
- B.1.617.2, HEK293T-AT: inhibition at the concentration (Fig2B) [2]: 99.1 and 99.3
- EC50 [2]: < 80 nM

Structure (SMILES): CCC(=O)O[C@H]1[C@H](O[C@@H]2[C@@H](C)[C@H](O[C@H]3C[C@@](C)(OC)[C@@H](O)[C@H](C)O3)[C@@H](C)C(=O)O[C@H](CC)[C@@](C)(O)[C@H](O)[C@@H](C)C(=O)[C@H](C)C[C@@]2(C)O)O[C@H](C)C[C@@H]1N(C)C [Erythromycin estolate, erythromycin estolate, reference compound]
- EC50 [1]: < 80 nM
- B.1.617.2, HEK293T-AT: inhibition at the concentration (Fig2B) [2]: 98.9 and 99.6 and 99.2
- EC50 [2]: < 80 nM
